Results taken from ChEMBL document CHEMBL1156078, “Structure-activity relationship (SAR) studies of 3-(2-amino-ethyl)-5-(4-ethoxy-benzylidene)-thiazolidine-2,4-dione: development of potential substrate-specific ERK1/2 inhibitors” (Bioorg Med Chem Lett, 2009).
Active and inactive are the calls of the source. The calls are words filed in the database; no cut-off is given here.

Key:
[1] = target: Ribosomal protein S6 kinase alpha-1 (Homo sapiens) (UniProt Q15418); assay: Inhibition of Rsk1 phosphorylation in PMA-stimulated human U937 cells at 10 to 50 uM after 3 hrs by Western blotting; format: cell-based; conditions: U-937
Chain of Ribosomal protein S6 kinase alpha-1 (Homo sapiens) (Q15418 whole entry): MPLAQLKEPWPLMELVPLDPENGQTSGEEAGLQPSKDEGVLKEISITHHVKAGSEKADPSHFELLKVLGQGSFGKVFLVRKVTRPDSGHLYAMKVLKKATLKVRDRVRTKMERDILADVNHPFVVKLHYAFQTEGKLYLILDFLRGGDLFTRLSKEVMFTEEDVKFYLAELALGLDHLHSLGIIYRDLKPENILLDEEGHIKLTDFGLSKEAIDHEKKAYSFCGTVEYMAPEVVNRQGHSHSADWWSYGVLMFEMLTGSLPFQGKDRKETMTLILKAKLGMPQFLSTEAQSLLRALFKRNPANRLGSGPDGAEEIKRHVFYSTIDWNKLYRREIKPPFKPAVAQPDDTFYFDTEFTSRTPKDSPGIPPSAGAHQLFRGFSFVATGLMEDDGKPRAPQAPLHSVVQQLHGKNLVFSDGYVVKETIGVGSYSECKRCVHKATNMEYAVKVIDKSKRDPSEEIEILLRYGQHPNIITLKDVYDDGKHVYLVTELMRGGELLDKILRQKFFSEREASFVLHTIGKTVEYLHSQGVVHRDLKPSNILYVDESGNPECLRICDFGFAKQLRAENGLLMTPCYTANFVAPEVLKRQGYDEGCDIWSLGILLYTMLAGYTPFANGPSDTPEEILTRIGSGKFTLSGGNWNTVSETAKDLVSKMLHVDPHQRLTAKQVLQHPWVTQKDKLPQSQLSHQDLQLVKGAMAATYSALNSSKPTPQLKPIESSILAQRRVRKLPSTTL

[2] = target: T1, Mitogen-activated protein kinase; ERK1/ERK2 (Homo sapiens) (UniProt P27361+P28482); assay: Inhibition of ERK1/2 phosphorylation in PMA-stimulated human U937 cells at 10 to 50 uM after 3 hrs by Western blotting; format: cell-based; conditions: U-937
T1 sequence (P27361 whole entry, looked up, the tested form may be a part): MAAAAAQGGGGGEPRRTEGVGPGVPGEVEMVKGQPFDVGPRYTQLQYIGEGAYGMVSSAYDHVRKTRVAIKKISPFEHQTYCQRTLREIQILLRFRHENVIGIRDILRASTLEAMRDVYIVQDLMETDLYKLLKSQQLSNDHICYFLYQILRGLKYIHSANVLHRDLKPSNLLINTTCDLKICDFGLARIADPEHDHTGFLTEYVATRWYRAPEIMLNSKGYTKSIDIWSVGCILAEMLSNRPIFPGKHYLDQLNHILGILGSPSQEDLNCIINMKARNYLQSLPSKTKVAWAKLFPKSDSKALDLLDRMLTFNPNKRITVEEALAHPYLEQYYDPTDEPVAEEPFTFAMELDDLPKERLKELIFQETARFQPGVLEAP
T1 sequence (P28482 whole entry, looked up, the tested form may be a part): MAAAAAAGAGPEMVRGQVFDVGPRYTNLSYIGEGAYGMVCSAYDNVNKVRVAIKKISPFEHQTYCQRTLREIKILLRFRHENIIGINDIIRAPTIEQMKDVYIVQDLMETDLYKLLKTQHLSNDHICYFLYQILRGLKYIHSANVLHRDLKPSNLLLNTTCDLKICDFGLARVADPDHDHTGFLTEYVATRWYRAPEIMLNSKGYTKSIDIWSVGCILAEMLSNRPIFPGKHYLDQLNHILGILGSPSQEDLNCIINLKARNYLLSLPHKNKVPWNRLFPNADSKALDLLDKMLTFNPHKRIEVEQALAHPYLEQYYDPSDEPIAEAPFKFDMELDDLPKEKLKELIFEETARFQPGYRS

[3] = target: T2, ETS domain-containing protein Elk-1 (Homo sapiens) (UniProt P19419); assay: Inhibition of Elk1 phosphorylation in PMA-stimulated human U937 cells at 50 uM after 3 hrs by Western blotting; format: cell-based; conditions: U-937
T2 sequence (whole entry): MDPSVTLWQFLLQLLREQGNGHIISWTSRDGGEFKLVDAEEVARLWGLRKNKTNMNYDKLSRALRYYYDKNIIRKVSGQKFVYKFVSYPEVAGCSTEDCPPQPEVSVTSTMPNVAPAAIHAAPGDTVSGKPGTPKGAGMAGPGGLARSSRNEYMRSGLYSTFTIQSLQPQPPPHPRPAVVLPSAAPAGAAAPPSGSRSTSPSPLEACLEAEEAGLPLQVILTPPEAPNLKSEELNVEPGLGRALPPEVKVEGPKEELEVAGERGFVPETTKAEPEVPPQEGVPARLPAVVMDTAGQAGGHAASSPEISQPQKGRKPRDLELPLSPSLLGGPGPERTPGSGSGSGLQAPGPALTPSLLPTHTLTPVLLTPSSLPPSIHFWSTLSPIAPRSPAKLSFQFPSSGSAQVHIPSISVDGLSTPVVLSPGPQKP

[4] = target: Ribosomal protein S6 kinase alpha-1 (Homo sapiens) (UniProt Q15418); assay: Inhibition of Rsk1 phosphorylation in PMA-stimulated human U937 cells at 50 uM after 3 hrs by Western blotting; format: cell-based; conditions: U-937
[5] = target: T1, Mitogen-activated protein kinase; ERK1/ERK2 (Homo sapiens); assay: Inhibition of ERK1/2 phosphorylation in PMA-stimulated human U937 cells at 50 uM after 3 hrs by Western blotting; format: cell-based; conditions: U-937
[6] = target: MAP kinase p38 (Homo sapiens) (UniProt O15264+Q15759+Q16539+P53778); assay: Inhibition of p38 phosphorylation in PMA-stimulated human U937 cells at 50 uM after 3 hrs by Western blotting; format: cell-based; conditions: U-937
[7] = target: Dual specificity mitogen-activated protein kinase kinase; MEK1/2 (Homo sapiens) (UniProt P36507+Q02750); assay: Inhibition of MEK1/2 phosphorylation in PMA-stimulated human U937 cells at 50 uM after 3 hrs by Western blotting; format: cell-based; conditions: U-937
Chain of Dual specificity mitogen-activated protein kinase kinase; MEK1/2 (Homo sapiens) (P36507 whole entry, looked up): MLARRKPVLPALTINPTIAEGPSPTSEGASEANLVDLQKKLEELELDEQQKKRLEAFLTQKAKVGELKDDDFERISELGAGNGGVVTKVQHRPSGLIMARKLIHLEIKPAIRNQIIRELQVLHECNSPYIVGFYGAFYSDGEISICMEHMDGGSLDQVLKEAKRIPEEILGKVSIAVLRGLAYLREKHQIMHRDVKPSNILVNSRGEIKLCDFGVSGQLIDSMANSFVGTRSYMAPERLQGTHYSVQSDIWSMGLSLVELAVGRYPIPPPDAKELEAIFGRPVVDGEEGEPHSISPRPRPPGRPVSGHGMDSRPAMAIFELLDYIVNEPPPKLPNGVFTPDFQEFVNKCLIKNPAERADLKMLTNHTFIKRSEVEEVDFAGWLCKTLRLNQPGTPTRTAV
Chain of Dual specificity mitogen-activated protein kinase kinase; MEK1/2 (Homo sapiens) (Q02750 whole entry, looked up): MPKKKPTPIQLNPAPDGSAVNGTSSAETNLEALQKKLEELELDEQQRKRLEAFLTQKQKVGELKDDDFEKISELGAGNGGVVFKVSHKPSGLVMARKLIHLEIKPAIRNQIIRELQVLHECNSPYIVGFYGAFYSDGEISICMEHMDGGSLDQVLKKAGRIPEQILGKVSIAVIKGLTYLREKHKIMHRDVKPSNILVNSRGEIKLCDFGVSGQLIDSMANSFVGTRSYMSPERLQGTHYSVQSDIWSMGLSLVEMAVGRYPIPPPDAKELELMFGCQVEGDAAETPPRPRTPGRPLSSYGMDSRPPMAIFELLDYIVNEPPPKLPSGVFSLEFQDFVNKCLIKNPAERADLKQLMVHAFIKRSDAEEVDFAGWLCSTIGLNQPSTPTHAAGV

U-937 [8] = assay: Induction of apoptosis in human U937 assessed as loss of mitochondrial membrane potential after 18 hrs by DiOC6 uptake assay; format: functional, cell-based
[9] = Inhibition of MEK phosphorylation
[10] = target: T1, Mitogen-activated protein kinase; ERK1/ERK2 (Homo sapiens); assay: Inhibition of ERK1/2 phosphorylation in EGF-stimulated human SKOV3 cells; format: cell-based; conditions: SK-OV-3
[11] = Inhibition of JNK phosphorylation
U-937 [12] = assay: Cytotoxicity against human U937 cells assessed as cell viability up to 30 uM after 24 hrs by MTT assay; format: functional, cell-based
[13] = target: Mitogen-activated protein kinase 1 (Homo sapiens) (UniProt P28482); assay: Inhibition of recombinant ERK2-mediated myelin basic protein phosphorylation at 50 uM after 30 mins by SDS-PAGE
Chain of Mitogen-activated protein kinase 1 (Homo sapiens) (P28482 whole entry): as the sequence (P28482 whole entry, looked up, the tested form may be a part) above

U-937 [14] = assay: Antiproliferative activity human U937 cells by [3H]thymidine incorporation assay; format: functional, cell-based

NCCN1C(=O)S/C(=C\c2ccccc2)C1=O
inhibition [1]: inactive
inhibition [2]: inactive

NCCN1C(=O)S/C(=C\c2cccc([N+](=O)[O-])c2)C1=O
inhibition [1]: inactive

CCOc1cccc(/C=C2\SC(=O)N(CCN)C2=O)c1
inhibition [1]: inactive
inhibition [2]: inactive

CN(C)CCN1C(=O)S/C(=C\C/C=C/c2ccccc2)C1=O
inhibition [3]: Active
inhibition [4]: Active
inhibition [5]: Active
inhibition [6]: inactive

CCOc1ccc(/C=C2\SC(=O)N(CCN(C)C)C2=O)cc1
inhibition [1]: inactive

NCCN1C(=O)S/C(=C\c2cccc(F)c2)C1=O
inhibition [1]: inactive

NCCN1C(=O)S/C(=C\c2cccc3ccccc23)C1=O
inhibition [3]: Active
inhibition [4]: Active
inhibition [5]: Active
inhibition [7]: Active
inhibition [6]: Active
Activity (U-937 [8]): inactive

NCCN1C(=O)S/C(=C\c2ccc(F)cc2)C1=O
inhibition [1]: inactive

NCCN1C(=O)S/C(=C\c2ccc([N+](=O)[O-])cc2)C1=O
inhibition [1]: inactive

CCOc1ccc(/C=C2\SC(=O)N(CCN)C2=O)cc1
inhibition [4]: Active
inhibition [9]: inactive
inhibition [5]: inactive
inhibition [10]: inactive
inhibition [6]: inactive
inhibition [11]: inactive
Activity (U-937 [12]): inactive
inhibition [13]: inactive

NCCN1C(=O)S/C(=C\c2ccc(-c3ccc(Cl)cc3)cc2)C1=O
inhibition [1]: Active
inhibition [2]: inactive

Cc1ccc(/C=C2\SC(=O)N(CCN)C2=O)cc1
inhibition [1]: inactive
inhibition [2]: inactive

CCOc1ccc(/C=C2\SC(=O)N(CCNC(C)=O)C2=O)cc1
inhibition [1]: inactive

NCCN1C(=O)S/C(=C\[C@H](O)[C@@H](O)c2ccccc2)C1=O
inhibition [5]: inactive

NCCN1C(=O)S/C(=C\c2ccc3c(c2)OCCO3)C1=O
inhibition [3]: Active
inhibition [4]: Active
inhibition [5]: Active
inhibition [7]: Active
inhibition [6]: Active
Activity (U-937 [8]): inactive

CCOc1ccccc1/C=C1\SC(=O)N(CCN)C1=O
inhibition [3]: Active
Activity (U-937 [14]): Dose-dependent effect
inhibition [1]: Active
inhibition [9]: inactive
inhibition [10]: inactive
inhibition [2]: inactive
inhibition [6]: inactive
Activity (U-937 [8]): Dose-dependent effect
inhibition [11]: inactive
Activity (U-937 [12]): inactive
inhibition [13]: inactive

COc1ccc(/C=C2\SC(=O)N(CCN)C2=O)cc1
inhibition [1]: inactive
inhibition [2]: inactive
